Results as given in patent publication US20260355171A1, “INHIBITORS AND USES THEREFOR” (priority 2022, published 2026).

Columns and labels:
[1] = Unbound fraction (fu) in mouse plasma; assay type: in vitro ADME
[2] = test system: PHP.B hSyn-NSP5-V5 adeno-associated virus; test: Weight loss after AAV injection; assay type: in vivo, mouse; conditions: 10 mg/kg daily, vs Paxlovid and vehicle; significant at day 19 to end
Protocol: In vivo testing was performed on 5-month-old female C57BL/6 wildtype mice injected intravenously with PHP.B hSyn-NSP5-V5 adeno-associated virus (AAV) and treated daily with compound 22 (10 mg/kg), Paxlovid (nirmatrelvir/ritonavir) (10 mg/kg nirmatrelvir: 3.33 mg/kg ritonavir) or a vehicle control (n=10 per group).
Weight loss was monitored over a 21-day period post injection with the AAV.

[3] = Adverse reactions in pharmacokinetic study; assay type: in vivo, mouse; conditions: 24-hour sampling period, IV 3 mg/kg and IP 10 mg/kg
Protocol: The pharmacokinetics of compound 22 was studied in non-fasted male C57BL/6 mice weighing 21.1-26.5 g. Mice had access to food and water ad libitum throughout the pre- and post-dose sampling period.
Compound 22 was dosed to mice by bolus injection into the lateral tail vein (2 mL/kg) for IV administration and by injection into the IP cavity (5 mL/kg) for IP administration. After dosing, blood samples were collected up to 24 h (n=3 mice per time point) with a maximum of three samples from each mouse via submandibular bleed (approximately 120 μL). No urine samples were collected as mice were housed in bedded cages. Blood was collected into polypropylene Eppendorf tubes containing heparin as anticoagulant. Once collected, blood samples were centrifuged immediately, supernatant plasma was removed, and stored at −80 °C until analysis by liquid chromatography-mass spectrometry (LC-MS). A summary of the bioanalytical method is included in Table 5.

primary neurons = test: Neuronal cell death in the presence of NMDA; assay type: cell-based, mouse; conditions: 1 or 10 μM compound, 100 μM NMDA
Protocol: Primary neurons were treated with 0.4, 1, 2, 10 or 50 μM of compound 2 or compound 22 (prepared according to Example 2). NSP5 was added to primary neurons at DIV11, and compound 2 or 22 was added 48 hours later. Cells were treated with propidium iodide 48 hours after compound addition. Cells were washed with PBS and fixed with 4% PFA. Cells were then washed and stained with DAPI. Images of cells were taken with ZEISS Axioscan 7 microscope slide scanner. Cell death was determined by Image J analysis, counting the death cell (red, PI)) vs all cells (blue, DAPI).
One hour after compound addition (1 or 10 μM of compound 2 or compound 22) neurons were treated with a cytotoxic agent (100 μM N-methyl-D-aspartate (NMDA), 100 μM H2O2 or 5 μM staurosporine). One hour after treatment with the cytotoxic agent, the media was replaced with fresh media and the neurons were incubated for 24 hours. A final concentration of 1 μM propidium iodide (PI) was added into the well and incubated for 5 mins. Cells were washed with phosphate-buffered saline (PBS) and then fixed with 4% PFA. Cells were then washed and stained with DAPI, and cell death determined as described above.

NC(=O)C1CCN(c2ncccc2CNCc2cccc3[nH]ccc23)CC1 [Compound 22]
fraction unbound [1]: 0.547 | Weight loss from 17 days post injection [2]: weight loss was less severe | Adverse reactions or compound-related side effects [3]: no adverse reactions or compound-related side effects observed | Protection from NMDA-induced neurotoxicity (primary neurons): did not protect
